Here are results for four compounds from US20160237106A1 (priority 2015, published 2016).

A word on the pEC50: it is the EC50 on a negative log10 scale, so that one unit is a factor of ten.

pEC50: −log10 of the molar value.

The test system of one data set is Ebola virus. The experiment in a line: microbe, parasite or virus in culture. The settings on record: Zaire ebolavirus, Vero C1008. The data set is classed as cell-based.
Another data set can be described thus: in vitro. The note with it: African green monkey.

`[N-]=[N+]=N[C@]1(CO)O[C@@H](n2cnc3c(=O)[nH]c(N)nc32)[C@H](O)[C@@H]1O` [Compound I-48, 4′-Azidoguanosine] gave a pEC50 with Ebola virus of more than 4.30. Besides, the CC50 in “in vitro” was more than 50 µM.
In the data set with Ebola virus, `[N-]=[N+]=N[C@]1(CO)O[C@@H](n2ccc(N)nc2=O)[C@H](F)[C@@H]1O` [Compound I-17, 4′-Azido-2′-deoxy-2′-fluorocytidine] gave a pEC50 of more than 4.70. In addition, in “in vitro”, the CC50 is more than 50 µM.
In the data set with Ebola virus, `C[C@H](NP(=O)(OC[C@@]1(N=[N+]=[N-])O[C@@H](n2ccc(=O)[nH]c2=O)[C@H](O)[C@@H]1O)Oc1cccc2ccccc12)C(=O)OCc1ccccc1` (stereo partly drawn) [Compound I-6, 4′-Azidouridine-5′-(O-1-naphthyl-N-(S)-1-(benzyloxycarbonyl)ethyl phosphoramidate] had a pEC50 of more than 4.70. Besides, the CC50 in the data set “in vitro” was more than 50 µM.
On to `[N-]=[N+]=N[C@]1(CO)O[C@@H](n2cnc3c(=O)[nH]c(N)nc32)[C@H](F)[C@@H]1O` [Compound I-47, 4′-Azido-2′-deoxy-2′-fluoroguanosine], for which the pEC50 in the data set on Ebola virus was more than 4.70. The same compound had a CC50 in “in vitro” of more than 50 µM.
